pIC50: −log10 of the molar value. Like-named read-outs stand apart in the source and are kept apart here.

A word on the pIC50: it is −log10 of the IC50, conventionally taken in molar units.

The experiment has as its target BTK (Homo sapiens (Human), UniProt Q06187). The experiment can be described thus: In vitro BTK kinase assay: BTK-POLYGAT-LS ASSAY.
Where [1] appears, read: read-out: IC50 (10 uM ATP), 10 uM ATP, in vitro Btk kinase assay, Example 41.

BTK, sequence (Q06187 whole entry): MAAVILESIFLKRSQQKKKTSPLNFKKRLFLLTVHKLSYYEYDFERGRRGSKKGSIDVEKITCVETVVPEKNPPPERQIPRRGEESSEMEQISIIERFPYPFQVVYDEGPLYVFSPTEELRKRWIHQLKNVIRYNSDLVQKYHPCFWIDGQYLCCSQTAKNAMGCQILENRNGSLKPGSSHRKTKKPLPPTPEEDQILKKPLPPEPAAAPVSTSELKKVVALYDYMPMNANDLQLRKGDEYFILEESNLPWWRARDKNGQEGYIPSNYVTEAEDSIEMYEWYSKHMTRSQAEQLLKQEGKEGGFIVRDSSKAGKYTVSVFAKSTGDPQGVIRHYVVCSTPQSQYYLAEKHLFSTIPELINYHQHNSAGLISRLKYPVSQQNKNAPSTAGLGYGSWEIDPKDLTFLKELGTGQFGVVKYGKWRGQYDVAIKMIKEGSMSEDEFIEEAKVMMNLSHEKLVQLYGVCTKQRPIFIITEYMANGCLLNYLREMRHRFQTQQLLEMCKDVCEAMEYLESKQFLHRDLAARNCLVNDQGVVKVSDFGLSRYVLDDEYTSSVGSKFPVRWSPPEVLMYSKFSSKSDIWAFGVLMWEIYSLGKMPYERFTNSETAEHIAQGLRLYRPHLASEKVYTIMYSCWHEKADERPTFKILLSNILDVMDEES

In turn, `O=C(Nc1cc(C2CCCN(c3ncnc4[nH]ccc34)C2)ccc1OC(F)(F)F)C1CCCCC1` (stereo not drawn) [Cmpd 87, N-(5-(1-(7H-pyrrolo[2,3-d]pyrimidin-4-yl)piperidin-3-yl)-2-(trifluoromethoxy)phenyl)cyclohexanecarboxamide] had a negative logarithm of the IC50 (pIC50) of 6.00 to 7.00.
Take `O=C(Nc1cc(C2CCCN(c3ncnc4[nH]ccc34)C2)ccc1OC(F)(F)F)c1c(Cl)cccc1Cl` (stereo not drawn) [Cmpd 88, N-(5-(1-(7H-pyrrolo[2,3-d]pyrimidin-4-yl)piperidin-3-yl)-2-(trifluoromethoxy)phenyl)-2,6-dichlorobenzamide]: the pIC50 was 5.00 to 6.00.
`O=C(Nc1cc(C2CCCN(c3ncnc4[nH]ccc34)C2)ccc1OC(F)(F)F)c1ccccc1F` (stereo not drawn) [Cmpd 89, N-(5-(1-(7H-pyrrolo[2,3-d]pyrimidin-4-yl)piperidin-3-yl)-2-(trifluoromethoxy)phenyl)-2-fluorobenzamide] gave a pIC50 of 5.00 to 6.00.
With `O=C(Nc1cc(C2CCCN(c3ncnc4[nH]ccc34)C2)ccc1OC(F)(F)F)c1c(F)cccc1Cl` (stereo not drawn) [Cmpd 90, N-(5-(1-(7H-pyrrolo[2,3-d]pyrimidin-4-yl)piperidin-3-yl)-2-(trifluoromethoxy)phenyl)-2-chloro-6-fluorobenzamide], the pIC50 is 6.00 to 7.00.
Same read-out and setting: with `O=C(Nc1ccccc1)Nc1cccc(C2CCCN(c3ncnc4[nH]ncc34)C2)c1` (stereo not drawn) [Cmpd 91, 1-(3-(1-(1H-pyrazolo[3,4-d]pyrimidin-4-yl)piperidin-3-yl)phenyl)-3-phenylurea] the figure was 5.00 to 6.00.
For the compound `CC(=O)Nc1cc(N2CCCC(c3cccc(NC(=O)Nc4ccccc4)c3)C2)ncn1` (stereo not drawn) [Cmpd 92, N-(6-(3-(3-(3-phenylureido)phenyl)piperidin-1-yl)pyrimidin-4-yl)acetamide], the pIC50 under setting [1] was less than 5.00.
On to `Cn1ccc2c(N3CCCC(c4cccc(NC(=O)Nc5ccccc5)c4)C3)ncnc21` (stereo not drawn) [Cmpd 93, 1-(3-(1-(7-methyl-7H-pyrrolo[2,3-d]pyrimidin-4-yl)piperidin-3-yl)phenyl)-3-phenylurea], for which the pIC50 under setting [1] is less than 5.00.
As for `Nc1cc(N2CCCC(c3cccc(NC(=O)Nc4ccccc4)c3)C2)ncn1` (stereo not drawn) [Cmpd 94, 1-(3-(1-(6-aminopyrimidin-4-yl)piperidin-3-yl)phenyl)-3-phenylurea], the pIC50 was 5.00 to 6.00.
`CNc1cc(N2CCCC(c3cccc(NC(=O)Nc4ccccc4)c3)C2)ncn1` (stereo not drawn) [Cmpd 95, 1-(3-(1-(6-(methylamino)pyrimidin-4-yl)piperidin-3-yl)phenyl)-3-phenylurea]: the pIC50 under setting [1] was less than 5.00.
In turn, `O=C1Cc2c(ncnc2N2CCCC(c3cccc(NC(=O)Nc4ccccc4)c3)C2)N1` (stereo not drawn) [Cmpd 96, 1-(3-(1-(6-oxo-6,7-dihydro-5H-pyrrolo[2,3-d]pyrimidin-4-yl)piperidin-3-yl)phenyl)-3-phenylurea] gave a pIC50 of 5.00 to 6.00.
Regarding `COc1c(N)ncnc1N1CCCC(c2cccc(NC(=O)Nc3ccccc3)c2)C1` (stereo not drawn) [Cmpd 97, 1-(3-(1-(6-Amino-5-methoxypyrimidin-4-yl)piperidin-3-yl)phenyl)-3-phenylurea], the pIC50 under setting [1] is less than 5.00.
Take `Cc1c(N)ncnc1N1CCCC(c2cccc(NC(=O)Nc3ccccc3)c2)C1` (stereo not drawn) [Cmpd 98, 1-(3-(1-(6-Amino-5-methylpyrimidin-4-yl)piperidin-3-yl)phenyl)-3-phenylurea]: the pIC50 is 5.00 to 6.00.
On the same count and under the same terms, in the case of `Nc1ncnc(N2CCCC(c3cccc(NC(=O)Nc4ccccc4)c3)C2)c1Cl` (stereo not drawn) [Cmpd 99, 1-(3-(1-(6-Amino-5-chloropyrimidin-4-yl)piperidin-3-yl)phenyl)-3-phenylurea] it was 5.00 to 6.00.
On to `O=C(Nc1ccccc1)Nc1cccc(C2CCCN(c3ncnc4[nH]nc(Br)c34)C2)c1` (stereo not drawn) [Cmpd 100, 1-(3-(1-(3-Bromo-1H-pyrazolo[3,4-d]pyrimidin-4-yl)piperidin-3-yl)phenyl)-3-phenylurea], for which the pIC50 is 5.00 to 6.00.
The same measure, in the same setting: with `Nc1ncnc(N2CCCC(c3cccc(NC(=O)Nc4ccccc4)c3)C2)c1Br` (stereo not drawn) [Cmpd 101, 1-(3-(1-(6-Amino-5-bromopyrimidin-4-yl)piperidin-3-yl)phenyl)-3-phenylurea] the figure was 5.00 to 6.00; with `N#Cc1c(N)ncnc1N1CCCC(c2cccc(NC(=O)Nc3ccccc3)c2)C1` (stereo not drawn) [Cmpd 102, 1-(3-(1-(6-Amino-5-cyanopyrimidin-4-yl)piperidin-3-yl)phenyl)-3-phenylurea], 6.00 to 7.00; with `O=C(Nc1ccccc1)Nc1cccc(C2CCCN(c3ncnc4[nH]cnc34)C2)c1` (stereo not drawn) [Cmpd 103, 1-(3-(1-(9H-Purin-6-yl)piperidin-3-yl)phenyl)-3-phenylurea], 6.00 to 7.00.
For `O=C(Nc1cccc(C2CCCN(c3ncnc4[nH]ccc34)C2)c1)c1ccncc1` (stereo not drawn) [compound 11, N-(3-(1-(7H-pyrrolo[2,3-d]pyrimidin-4-yl)piperidin-3-yl)phenyl)isonicotinamide], under setting [1], the pIC50 was less than 5.00.
On the same count and under the same terms, with `O=C(Nc1cccc(C2CCCN(c3ncnc4[nH]ccc34)C2)c1)c1cccnc1` (stereo not drawn) [compound 12, N-(3-(1-(7H-pyrrolo[2,3-d]pyrimidin-4-yl)piperidin-3-yl)phenyl)nicotinamide] the figure was less than 5.00; with `O=C(Nc1cccc(C2CCCN(c3ncnc4[nH]ccc34)C2)c1)c1ccccn1` (stereo not drawn) [compound 13, N-(3-(1-(7H-pyrrolo[2,3-d]pyrimidin-4-yl)piperidin-3-yl)phenyl)picolinamide], less than 5.00.
As to `O=C(Nc1cccc(C2CCCN(c3ncnc4[nH]ccc34)C2)c1)c1ccc[nH]1` (stereo not drawn) [compound 14, N-(3-(1-(7H-pyrrolo[2,3-d]pyrimidin-4-yl)piperidin-3-yl)phenyl)-1H-pyrrole-2-carboxamide], the pIC50 under setting [1] is less than 5.00.
Still for that read-out and setting: in the case of `O=C(Nc1cccc(C2CCCN(c3ncnc4[nH]ccc34)C2)c1)c1cccc(O)c1` (stereo not drawn) [compound 15, N-(3-(1-(7H-pyrrolo[2,3-d]pyrimidin-4-yl)piperidin-3-yl)phenyl)-3-hydroxybenzamide] it was less than 5.00.
Compound `c1ccc(Nc2nc3ccc(C4CCCN(c5ncnc6[nH]ccc56)C4)cc3[nH]2)cc1` (stereo not drawn) [compound 105, 6-(1-(7H-pyrrolo[2,3-d]pyrimidin-4-yl)piperidin-3-yl)-N-phenyl-1H-benzo[d]imidazol-2-amine] had a pIC50 of 5.00 to 6.00.
In turn, `O=C(Nc1ccccc1)Nc1csc(C2CCCN(c3ncnc4[nH]ccc34)C2)n1` (stereo not drawn) [compound 106, 1-(2-(1-(7H-pyrrolo[2,3-d]pyrimidin-4-yl)piperidin-3-yl)thiazol-4-yl)-3-phenylurea] gave a pIC50 of 5.00 to 6.00.
On to `O=C(Nc1csc(C2CCCN(c3ncnc4[nH]ccc34)C2)n1)Nc1ccccc1N1CCCC1` (stereo not drawn) [compound 107, 1-(2-(1-(7H-pyrrolo[2,3-d]pyrimidin-4-yl)piperidin-3-yl)thiazol-4-yl)-3-(2-(pyrrolidin-1-yl)phenyl)urea], for which the pIC50 under setting [1] was more than 7.00.
In the case of `N#Cc1c(N)ncnc1N1CCCC(c2nc(NC(=O)Nc3ccccc3N3CCCC3)cs2)C1` (stereo not drawn) [compound 109, 1-(2-(1-(6-amino-5-cyanopyrimidin-4-yl)piperidin-3-yl)thiazol-4-yl)-3-(2-(pyrrolidin-1-yl)phenyl)urea], the pIC50 under setting [1] was more than 7.00.
As for `O=C(Nc1csc(C2CCCN(c3ncnc4[nH]ncc34)C2)n1)Nc1ccccc1N1CCCC1` (stereo not drawn) [compound 110, 1-(2-(1-(1H-pyrazolo[3,4-d]pyrimidin-4-yl)piperidin-3-yl)thiazol-4-yl)-3-(2-(pyrrolidin-1-yl)phenyl)urea], under setting [1], the pIC50 is more than 7.00.
